Test results taken from US11952338B2, “Anticonvulsant compounds” (OWEN-BARRY PHARMACEUTICALS INC., priority 2017, dated 2024).

Tests used:
[1] = detection in rat blood after oral or intravenous administration of Example 1; type: in vivo; details: for detection in blood: rats dosed with Example 1 orally or by vein injection, over 24 hours
Method: FIG. 7 is a graph showing the detection of the compounds of Example 1 and Example 2 in rat blood after oral or intravenous administration of the compound of Example 1.
FIG. 8 is a graph showing the time it takes for the compound of Example 1 to be converted in vivo to the compound of Example 2.
All rats were dosed with the compound of Example 1 either orally or by vein injection.

[2] = system: rodent kindling model of epilepsy (partial complex seizures); assay: amygdala kindling model of epilepsy; type: in vivo, rat; details: 20 mg/kg
Method: FIG. 4 is a summary of data showing the prevention, by the compound of Example 1 at a dose of 20 mg/kg, of stage 5 seizures in an animal model of partial complex seizures, using the amygdala kindling model of epilepsy. FIG. 5 is a graph showing that the pre-treatment of rats (20 mg/kg) undergoing the amygdala kindling procedure prevents the development of stage 5 seizures. […] This model produces partial complex seizures that are similar to temporal lobe seizures experienced by humans. […] Therefore, compounds according to the present invention, including preferably the compound of Example 1, may be used in prophylactic treatment or prevention of epileptogenesis.

[3] = system: isolated rat brain slices; assay: voltage sensitive dye imaging of electrically stimulated brain slices; type: cell-based
Method: The compounds described in the above examples display activity in in vitro and in vivo assays that track brain electrical activity. A first assay is conducted using voltage sensitive dye imaging. This is done on isolated rat brain slices kept viable in artificial cerebral spinal fluid (ACSF). Electrically stimulating the slice activates the neural assemblies therein. A voltage sensitive dye, such as, di-4-ANEPPS, is incubated with a brain slice for 1 hour in a suitable solution that enhances the dye penetration into the tissue. The dye reacts to changes in voltage across the cell membrane of the neurons in the brain slice. The example compounds are added to the ACSF at known concentration between 50 and 200 nM. The brain slices are then subjected to an electrical stimulus that activates the neurons in the slice. As the dye reacts to the change in voltage, which can be observed and quantified, the degree to which activation of the brain is dampened by the presence of the example compound is evaluated.

[4] = system: voltage-gated sodium channels; assay: patch clamp electrophysiology on cultured cortical neurons; type: cell-based, rat; details: 100 μM
Method: In another assay, the inhibition by the example compounds on the activity of voltage-gated sodium channels is determined using patch clamp electrophysiology. This analysis is done on cultured cortical neurons isolated from rats. […] This was done by assessing the suppression of the voltage gated sodium channel activity 16 ms after a test pulse.
Under control conditions, recovery occurs at a rate of about 13 ms. In the presence of 100 μM of the compound of Example 1, recovery is slowed to a rate of about 26 ms, and recovery is substantially complete after about 50 ms. […] This is a desirable property for antiseizure compounds, as little or no block of normal function occurs, while reducing (epileptic) activity that occurs at high frequency.

[5] = system: rodent model of traumatic brain injury/stress; assay: rodent model of traumatic brain injury/stress; type: in vivo, rat
From the text: FIG. 6 is an electrographic record of activity from the amygdala of a rat which has undergone traumatic brain injury and has been stressed (tail pinch). […] After moderate traumatic brain injury under control conditions, stress induces epileptiform activity in the amygdala. This activity is shown on the left in FIG. 6, where a stressor induces increased activity. […] On the right in FIG. 6, it is evident that the compound of Example 1 prevents the induction of this response and is particularly effective in reducing high frequency activity (i.e. >250 Hz) that is considered to be epileptogenic. This electrophysiological response in the control traumatic brain injury rats was accompanied by stage 2 to 3 seizures (Racine scale: av. 2.0±0.5 n=6 rats). These behavioral responses were blocked in the traumatic brain injury rats treated with the compound of Example 1.

[6] = stability in human plasma; type: in vitro ADME; details: human plasma dosed with Example 1
From the text: FIG. 9 is a graph showing the stability of the compound of Example 2 in human plasma once converted from the compound of Example 1.

| time course of conversion of Example 1 to Example 2 ([1]; rats dosed with 20 mg/kg of Example 1) | SMILES | detection in blood [1] | stage 5 seizures ([2]; oral administration) | development of epileptic seizures ([2]; prior prophylactic dosing) | effect on amplitude and duration of the response [3] | suppression of activation of the brain slice activity ([3]; 50 nM) [%] | suppression of activation of the brain slice activity ([3]; 200 nM) [%] | reduction of activity ([3]; 60 pulses/second) [%] | activity at low stimulation frequency ([3]; stimulation frequency of 20 pulses/second) | recovery from inactivation [4] [%] | time after which recovery is substantially complete [4] | rate of recovery of sodium channel inactivation ([4]; control about 13 ms) | induction of seizure (epileptiform) activity in the amygdala by stress ([5]; after moderate traumatic brain injury, tail pinch) | behavioral responses (stage 2 to 3 seizures, Racine scale) ([5]; traumatic brain injury rats) | stability in human plasma [6] |
| --- | --- | --- | --- | --- | --- | --- | --- | --- | --- | --- | --- | --- | --- | --- | --- |
| substantially complete within one hour | COC(=O)c1ccc(C2=CC(=O)CC(C)(C)C2)cc1 [Example 1, Methyl 3′,3′-dimethyl-5′-oxo-2′,3′,4′,5′-tetrahydro-[1,1′-biphenyl]-4-carboxylate] | only detectable as the free acid | prevents stage 5 seizures from occurring | prevents the onset of seizures | reduced both amplitude and duration of the response | 29±5 | 48±5 | 48 | little or no activity | 100 | about 50 ms | about 26 ms | prevents the induction of seizure activity | blocked | – |
| – | CC1(C)CC(=O)C=C(c2ccc(C(=O)O)cc2)C1 [Example 2, 3′,3′-Dimethyl-5′-oxo-2′,3′,4′,5′-tetrahydro-[1,1′-biphenyl]-4-carboxylic acid] | the only molecule detected in significant quantities | – | – | – | – | – | – | – | – | – | – | – | – | stable and is not further converted to another molecule |
